The results in this text go back to PubChem BioAssay (NCI).

Among the test systems are HCC-2998 colon; OVCAR-5 ovarian; K-562 leukemia; SF-539 CNS; HL-60(TB) leukemia; OVCAR-4 ovarian; A498 renal; SK-OV-3 ovarian; SK-MEL-2 melanoma; HOP-92 NSCLC.
What all share (experiment): inhibition of tumour cell growth, NCI panel, 48 h

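1) Cells in 96-well plates. 2) Compound, 48 h, 5 concentrations. 3) Linear interpolation between surrounding doses. 4) Unreached endpoint = highest concentration. Abbreviation: GI50, concentration required for 50% inhibition of growth. At the TGI there is no net growth.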

With `C=C1CC(CC(=O)C(C)CC2CC(=C)C(=O)O2)OC1=O` (configuration not stated), the TGI in the test on HCC-2998 colon was > 100 µM; in the test with OVCAR-5 ovarian it was > 100 µM; in the test on K-562 leukemia, 89.6 µM; in the test with SF-539 CNS, 37.7 µM; in the test on HL-60(TB) leukemia, 33.6 µM; with OVCAR-4 ovarian, 30.5 µM. Moreover, the TGI with A498 renal was > 100 µM; in the test with SK-OV-3 ovarian it was > 100 µM; in the test with SK-MEL-2 melanoma, 25.3 µM; in the test with HOP-92 NSCLC, 32.1 µM.

For the compound `CC(=O)Nc1ccccc1S(=O)c1ccccc1` (configuration not stated), the TGI with HCC-2998 colon, with OVCAR-5 ovarian, in the test with K-562 leukemia, in the test on SF-539 CNS, with HL-60(TB) leukemia and in the test with OVCAR-4 ovarian was > 100 µM each time. Besides, the TGI with A498 renal, in the test with SK-OV-3 ovarian, with SK-MEL-2 melanoma and with HOP-92 NSCLC was > 100 µM each time.

For `CN1CCN(Cc2ccc(NC(=O)c3cncc(C#Cc4ncc5ccccn45)c3)cc2C(F)(F)F)CC1`, the GI50 with HCC-2998 colon is 3.37 µM; in the test on OVCAR-5 ovarian, 1.76 µM; with K-562 leukemia, 0.0025 µM; in the test with SF-539 CNS it was 0.471 µM; in the test on HL-60(TB) leukemia, 0.845 µM; in the test on OVCAR-4 ovarian it was 0.531 µM. Besides, the GI50 was 2.83 µM in the test with A498 renal, 1.33 µM with SK-OV-3 ovarian, 0.876 µM in the test with SK-MEL-2 melanoma and 0.762 µM in the test with HOP-92 NSCLC. Further, the TGI in the test on HCC-2998 colon amounted to 6.99 µM; in the test with OVCAR-5 ovarian, 8.41 µM; with K-562 leukemia, 2.91 µM; in the test on SF-539 CNS, 1.91 µM; in the test with HL-60(TB) leukemia, 2.76 µM; in the test on OVCAR-4 ovarian, 4.57 µM. Further, the TGI in the test on A498 renal came to 5.96 µM; in the test with SK-OV-3 ovarian, 4.58 µM; in the test with SK-MEL-2 melanoma it was 3.82 µM; with HOP-92 NSCLC, 2.37 µM.

`CCc1cccc(CC)c1NC(=O)C1=CNC(C)=C(C(=O)Nc2c(CC)cccc2CC)C1c1ccc(O)c(OC)c1` (configuration not stated): the TGI in the test on HCC-2998 colon was 88.8 µM; in the test on OVCAR-5 ovarian, > 100 µM; in the test on K-562 leukemia, 99.5 µM; with SF-539 CNS, 51.3 µM; in the test with HL-60(TB) leukemia, 57.4 µM; with OVCAR-4 ovarian, 91.4 µM. Further, the TGI in the test with A498 renal was 76.4 µM; with SK-OV-3 ovarian, > 100 µM; with SK-MEL-2 melanoma, 91.8 µM; in the test with HOP-92 NSCLC, > 100 µM.

As to `CN(C)c1ccc(/C=c2\sc3nnc(Cc4ccccc4)n3c2=O)cc1`, the TGI with HCC-2998 colon was > 100 µM; in the test with OVCAR-5 ovarian it was > 100 µM; in the test on K-562 leukemia, > 100 µM; in the test with SF-539 CNS, > 100 µM; with HL-60(TB) leukemia, > 10 µM; in the test with OVCAR-4 ovarian, > 100 µM. The TGI in the test with A498 renal, with SK-OV-3 ovarian, in the test on SK-MEL-2 melanoma and in the test with HOP-92 NSCLC was > 100 µM each time. In addition, the GI50 with OVCAR-5 ovarian, in the test with K-562 leukemia, with SF-539 CNS, with OVCAR-4 ovarian, with A498 renal and in the test on SK-OV-3 ovarian was > 100 µM in each case. In addition, the GI50 with SK-MEL-2 melanoma was > 100 µM.

As to `O=C(N/N=C/c1cccc(O)c1)c1ccc(C(F)(F)F)nc1Nc1cccc(C(F)(F)F)c1`, the GI50 in the test on HCC-2998 colon is 1.02 µM; in the test with OVCAR-5 ovarian, 1.63 µM; with K-562 leukemia it was 1.19 µM; in the test on SF-539 CNS, 1.78 µM; with HL-60(TB) leukemia, 1.56 µM; in the test with OVCAR-4 ovarian, 0.955 µM. Also, the GI50 in the test with A498 renal is 1.59 µM; in the test on SK-OV-3 ovarian, 1.77 µM; in the test on SK-MEL-2 melanoma, 1.76 µM; in the test on HOP-92 NSCLC it was 1.29 µM. The TGI was found to be 3.42 µM in the test with HCC-2998 colon; 5.67 µM with OVCAR-5 ovarian; 2.69 µM in the test with K-562 leukemia; 4.03 µM in the test on SF-539 CNS; 3.45 µM in the test with HL-60(TB) leukemia; 22.8 µM with OVCAR-4 ovarian. In addition, the TGI with A498 renal was 5.65 µM; in the test on SK-OV-3 ovarian, 6.02 µM; in the test with SK-MEL-2 melanoma, 6.07 µM; in the test on HOP-92 NSCLC, 4.56 µM.

As for `O=[N+]([O-])c1ccc2nc(=S)[nH]n2c1`, the TGI in the test on HCC-2998 colon, in the test with OVCAR-5 ovarian, with K-562 leukemia, with SF-539 CNS, in the test with HL-60(TB) leukemia and with OVCAR-4 ovarian was > 100 µM each time. For the same compound, the TGI with A498 renal, with SK-OV-3 ovarian, in the test with SK-MEL-2 melanoma and in the test with HOP-92 NSCLC was > 100 µM throughout.

Turning to `CC1CC2(C)CC(=O)C1C1C(=O)N(CCN3CCOCC3)C(=O)C12` (configuration not stated), the GI50 in the test on HCC-2998 colon, in the test on OVCAR-5 ovarian, in the test with K-562 leukemia, in the test with SF-539 CNS, in the test with HL-60(TB) leukemia and with OVCAR-4 ovarian was > 100 µM in each case. Moreover, the GI50 in the test with A498 renal, in the test on SK-OV-3 ovarian, with SK-MEL-2 melanoma and in the test with HOP-92 NSCLC was > 100 µM in each case. Moreover, the TGI in the test on HCC-2998 colon, in the test with OVCAR-5 ovarian, in the test on K-562 leukemia, in the test with SF-539 CNS, in the test on HL-60(TB) leukemia and in the test on OVCAR-4 ovarian was > 100 µM each time. In addition, the TGI in the test with A498 renal, with SK-OV-3 ovarian, in the test with SK-MEL-2 melanoma and in the test with HOP-92 NSCLC was > 100 µM each time.

`CN(C)c1ccc(/C=N/NC(=O)c2cnc3ccccc3c2)cc1`: the TGI with HCC-2998 colon, in the test with OVCAR-5 ovarian, in the test on K-562 leukemia, in the test with SF-539 CNS, with HL-60(TB) leukemia and in the test with OVCAR-4 ovarian was > 100 µM in each case. The TGI in the test with A498 renal, with SK-OV-3 ovarian, with SK-MEL-2 melanoma and in the test with HOP-92 NSCLC was > 100 µM each time.
